Tests used:
Escherichia coli [1] = experiment: Inhibition of Escherichia coli MurD assessed as residual activity at 250 uM
Escherichia coli [2] = experiment: Inhibition of Escherichia coli MurD assessed as residual activity at 500 uM
Escherichia coli [3] = experiment: Inhibition of Escherichia coli MurC assessed as residual activity at 250 uM
Escherichia coli [4] = experiment: Inhibition of Escherichia coli MurF assessed as residual activity at 250 uM
Escherichia coli [5] = experiment: Inhibition of Escherichia coli MurE assessed as residual activity at 250 uM
[6] = Inhibition of Escherichia coli MurD assessed as residual activity

Activity (Escherichia coli [1]) | Activity (Escherichia coli [2]) | other results | Compound
85% | – | – | O=C(O)CC[C@@H](NC(=O)c1ccc(CNc2cccc(/C=C3\SC(=O)NC3=O)c2)cc1)C(=O)O
70% | – | – | O=C(O)CC[C@@H](NC(=O)c1ccc(CNc2ccc(/C=C3\SC(=O)NC3=O)cc2)cc1)C(=O)O
– | 81% | – | COC(=O)CC[C@H](NC(=O)c1ccc(CNc2ccc3nc(N)nc(N)c3c2)cc1)C(=O)OC
– | 82% | – | Nc1nc(N)c2cc(NCc3ccc(C(=O)N[C@H](CCC(=O)O)C(=O)O)cc3)ccc2n1
– | 96% | – | COC(=O)CC[C@H](NC(=O)c1ccc(NCc2cnc3[nH]c(N)nc(=O)c3n2)cc1)C(=O)OC
– | – | Activity (Escherichia coli [3]): 76%; Activity (Escherichia coli [4]): 77%; Activity (Escherichia coli [5]): 91%; IC50 [6]: 206 µM | O=C(O)CC[C@H](NC(=O)c1ccc(CNc2cccc(/C=C3\SC(=S)NC3=O)c2)cc1)C(=O)O
87% | – | – | O=C(O)CC[C@H](NC(=O)c1ccc(CNc2cccc(/C=C3\SC(=O)NC3=O)c2)cc1)C(=O)O
74% | – | – | O=C(O)CC[C@@H](NC(=O)c1ccc(CNc2ccc(/C=C3\SC(=S)NC3=O)cc2)cc1)C(=O)O
– | 95% | – | Nc1nc(=O)c2nc(CNc3ccc(C(=O)N[C@@H](CCC(=O)O)C(=O)O)cc3)cnc2[nH]1
– | 92% | – | COC(=O)CC[C@H](NC(=O)c1ccc(CNc2ccc3[nH]c(=O)[nH]c(=O)c3c2)cc1)C(=O)OC
– | – | Activity (Escherichia coli [3]): 78%; Activity (Escherichia coli [4]): 79%; Activity (Escherichia coli [5]): 96%; IC50 [6]: 174 µM | O=C(O)CC[C@@H](NC(=O)c1ccc(CNc2cccc(/C=C3\SC(=S)NC3=O)c2)cc1)C(=O)O
68% | – | – | O=C(O)CC[C@H](NC(=O)c1ccc(CNc2ccc(/C=C3\SC(=S)NC3=O)cc2)cc1)C(=O)O
– | 91% | – | COC(=O)CC[C@@H](NC(=O)c1ccc(CNc2ccc3[nH]c(=O)[nH]c(=O)c3c2)cc1)C(=O)OC
– | 81% | – | O=C(O)CC[C@H](NC(=O)c1ccc(CNc2ccc3[nH]c(=O)[nH]c(=O)c3c2)cc1)C(=O)O
– | 80% | – | Nc1nc(N)c2cc(NCc3ccc(C(=O)N[C@@H](CCC(=O)O)C(=O)O)cc3)ccc2n1
88% | – | – | O=C(O)CC[C@H](NC(=O)c1ccc(CNc2ccc(/C=C3\SC(=O)NC3=O)cc2)cc1)C(=O)O
– | 77% | – | O=C(O)CC[C@@H](NC(=O)c1ccc(CNc2ccc3[nH]c(=O)[nH]c(=O)c3c2)cc1)C(=O)O
– | 87% | – | COC(=O)CC[C@@H](NC(=O)c1ccc(CNc2ccc3nc(N)nc(N)c3c2)cc1)C(=O)OC

From ChEMBL document CHEMBL1139265, “Synthesis and biological evaluation of new glutamic acid-based inhibitors of MurD ligase” (Bioorg Med Chem Lett, 2009)
